Tested on: human embryonic kidney 293 (HEK293) cells
Assay: Toxicity of Nucleoside Triphosphates (NTPs), CYTO TOX-GLO assay
Type: cell-based
Details: human
Protocol: The cytotoxicity of natural and modified nucleoside triphosphates (NTPs) alone or in combination with other bases, was analyzed in human embryonic kidney 293 (HEK293) cells in the absence of transfection reagent. […] 10 ul of the NTPs outlined in Table 12 were combined with 10 ul of lipid dilution and incubated for 30 minutes to form a complex before 80 ul of the HEK293 cell suspension was added to the NTP complex. Natural and modified NTPs were transfected at a concentration of 2.1 nM, 21 nM, 210 nM, 2.1 um, 21 uM, 210 um or 2.1 mM. NTPs in combination were transfected at a total concentration of NTPs of 8.4 nM, 84 nM, 840 nM, 8.4 uM, 84 uM, 840 uM and 8.4 mM.

Row | Structure (SMILES) | percent of viable cells (4 h, 2.1 nM) | percent of viable cells (4 h, 21 nM) | percent of viable cells (4 h, 210 nM) | percent of viable cells (4 h, 2.1 uM) | percent of viable cells (4 h, 21 uM) | percent of viable cells (4 h, 210 uM) | percent of viable cells (4 h, 2.1 mM) | percent of viable cells (24 h, 2.1 nM) | percent of viable cells (24 h, 21 nM) | percent of viable cells (24 h, 210 nM) | percent of viable cells (24 h, 2.1 uM) | percent of viable cells (24 h, 21 uM) | percent of viable cells (24 h, 210 uM) | percent of viable cells (24 h, 2.1 mM) | percent of viable cells (48 h, 2.1 nM) | percent of viable cells (48 h, 21 nM) | percent of viable cells (48 h, 210 nM) | percent of viable cells (48 h, 2.1 uM) | percent of viable cells (48 h, 21 uM) | percent of viable cells (48 h, 210 uM) | other results
1 | Nc1nc2nc[nH]c2c(=O)[nH]1 [Guanine] | 93.33% | 92.84% | 90.00% | 90.60% | 91.36% | 90.14% | 90.96% | 85.41% | 85.50% | 86.35% | 86.13% | 85.93% | 85.86% | 86.37% | 89.57% | 87.92% | 85.31% | 87.89% | 88.18% | 87.05% | percent of viable cells (48 h, 2.1 mM): 93.83%; percent of viable cells (72 h, 2.1 nM): 93.72%; percent of viable cells (72 h, 21 nM): 92.55%; percent of viable cells (72 h, 210 nM): 92.19%; percent of viable cells (72 h, 2.1 uM): 92.30%; percent of viable cells (72 h, 21 uM): 92.39%; percent of viable cells (72 h, 210 uM): 91.41%; percent of viable cells (72 h, 2.1 mM): 97.04%
2 | Nc1ncnc2nc[nH]c12 [Adenine] | 93.48% | 93.21% | 90.36% | 90.23% | 91.20% | 85.97% | 90.03% | 86.44% | 87.19% | 86.94% | 86.81% | 86.86% | 87.31% | 88.42% | 92.12% | 91.13% | 89.17% | 89.80% | 89.94% | 90.55% | percent of viable cells (48 h, 2.1 mM): 93.71%; percent of viable cells (72 h, 2.1 nM): 95.74%; percent of viable cells (72 h, 21 nM): 93.88%; percent of viable cells (72 h, 210 nM): 92.22%; percent of viable cells (72 h, 2.1 uM): 94.58%; percent of viable cells (72 h, 21 uM): 93.83%; percent of viable cells (72 h, 210 uM): 94.81%; percent of viable cells (72 h, 2.1 mM): 97.49%
3 | O=c1cc[nH]c(=O)[nH]1 [Uracil] | 93.15% | 92.90% | 91.05% | 90.90% | 91.95% | 89.60% | 90.97% | 87.63% | 87.23% | 86.52% | 86.75% | 85.89% | 86.48% | 87.68% | 91.28% | 88.89% | 88.33% | 89.44% | 89.11% | 88.98% | percent of viable cells (48 h, 2.1 mM): 94.39%; percent of viable cells (72 h, 2.1 nM): 95.51%; percent of viable cells (72 h, 21 nM): 94.53%; percent of viable cells (72 h, 210 nM): 94.50%; percent of viable cells (72 h, 2.1 uM): 94.60%; percent of viable cells (72 h, 21 uM): 93.63%; percent of viable cells (72 h, 210 uM): 93.45%; percent of viable cells (72 h, 2.1 mM): 96.82%
